This is an account of results in US20100004159A1, “SUBSTITUTED IMIDAZOLONE DERIVATIVES, PREPARATIONS AND USES” (GENFIT, priority 2006, published 2010).

This assay concerns Wistar rats under repeated administrations of angiotensin II. The experiment in a line: Arterial pressure of Wistar rats under repeated administration of angiotensin II. The following applies: angiotensin II boluses 50, 100 and 200 ng/kg; single intravenous dose 20 mpk. Type of assay: in vivo, rat. As for the experimental part: This experimental procedure is intended to show the anti-hypertensive effects of the compounds according to the invention in Wistar rats in which hypertension is induced either by continuous intravenous administration of angiotensin II (example 21.1) or by repeated intravenous administration of angiotensin II (example 21.2). The animals were treated with the compounds according to the invention intravenously at increasing doses. To validate the study, the control animals were administered, in the same conditions, either the vehicle itself or a reference.
Wistar rats (males—200-250 g—5-6 weeks old—CERJ) were anesthetized for surgery using pentobarbital (50 mg/kg). A catheter was placed in the right jugular vein for angiotensin II administration. A catheter was placed in the left jugular vein the administration of the compounds according to the invention. Boluses of angiotensin II were performed at predetermined intervals by the experimenter using a manual syringe.
The arterial pressure of the animal was measured for a few minutes at basal conditions; then three successive intravenous administrations of angiotensin II (50, 100, and 200 ng/kg) were performed. At every bolus of angiotensin II, the average arterial pressure, expressed in mm of Hg, increased in a very temporary way. […]

SMILES strings stand for the structures.

Take `CCCCC1=NC2(CCCC2)C(=O)N1Cc1ccc(-c2cccc(OC(C)(C)C(=O)O)c2)cc1` [Compound 1, 2-butyl-1-[(3′-((1-carboxy-1,1-dimethylmethyl)oxy)biphenyl-4-yl)methyl]-4-spirocyclopentyl-1H-imidazol-5(4H)-one]: the “difference of arterial pressure: antagonist effect on angiotensin II” value was “antagonist effect on angiotensin II”.
